What follows are compounds tested on HCV 1b genotype (assay: HCV Replicon assay (HCV 1b genotype)). Conditions: Hepatitis C virus; HCV 1b genotype replicon; read-out: EC50.
Type: cell-based
Experimental: An HCV Replicon assay was utilized in the present disclosure, and was prepared, conducted and validated as described in commonly owned PCT/US2006/022197 and in O'Boyle et al., Antimicrob. Agents Chemother., 49(4):1346-1353 (April 2005). Assay methods incorporating luciferase reporters have also been used as described (Apath.com).
HCV-neo replicon cells and replicon cells containing resistance substitutions in the NS5A region were used to test the currently described family of compounds. The compounds were determined to have differing degrees of reduced inhibitory activity on cells containing mutations vs. the corresponding inhibitory potency against wild-type cells. Thus, the compounds of the present disclosure can be effective in inhibiting the function of the HCV NS5A protein and are understood to be as effective in combinations as previously described in application PCT/US2006/022197 and commonly owned WO 04/014852. It should be understood that the compounds of the present disclosure can inhibit multiple genotypes of HCV. […] In one embodiment, compounds of the present disclosure are inhibitory versus 1a, 1b, 2a, 2b, 3a, 4a, and 5a genotypes.

SMILES	EC50 [nM]
COC(=O)N[C@H](C(=O)N1CCC[C@H]1c1nc2ccc(-c3ccc4cc(-c5ccc6nc([C@@H]7CCCN7C(=O)[C@@H](NC(=O)OC)C7CCOCC7)[nH]c6c5)ccc4c3)cc2[nH]1)C(C)C [Example 27, Methyl((1S)-2-((2S)-2-(5-(6-(2-((2S)-1-((2S)-2-((methoxycarbonyl)amino)-3-methylbutanoyl)-2-pyrrolidinyl)-1H-benzimidazol-5-yl)-2-naphthyl)-1H-benzimidazol-2-yl)-1-pyrrolidinyl)-2-oxo-1-(tetrahydro-2H-pyran-4-yl)ethyl)carbamate]	0.00477
COC(=O)N[C@H](C(=O)N1[C@@H]2C[C@@H]2C[C@H]1c1nc2ccc(-c3ccc4nc(-c5ccc6nc([C@@H]7C[C@H]8C[C@H]8N7C(=O)[C@@H](NC(=O)OC)C7CCOCC7)[nH]c6c5)cnc4c3)cc2[nH]1)C1CCOCC1 [Example 38, Dimethyl(2,6-quinoxalinediylbis(1H-benzimidazole-5,2-diyl(1R,3S,5R)-2-azabicyclo[3.1.0]hexane-3,2-diyl((1S)-2-oxo-1-(tetrahydro-2H-pyran-4-yl)-2,1-ethanediyl)))biscarbamate]	0.0421
COC(=O)N[C@H](C(=O)N1[C@@H]2C[C@@H]2C[C@H]1c1nc2ccc(-c3ccc4cc(-c5ccc6cc(-c7ccc8nc([C@@H]9C[C@H]%10C[C@H]%10N9C(=O)[C@@H](NC(=O)OC)C(C)C)[nH]c8c7)ccc6c5)ccc4c3)cc2[nH]1)C(C)C [Example 46, Methyl((1S)-1-(((1R,3S,5R)-3-(5-(6′-(2-((1R,3S,5R)-2-((2S)-2-((methoxycarbonyl)amino)-3-methylbutanoyl)-2-azabicyclo[3.1.0]hex-3-yl)-1H-benzimidazol-5-yl)-2,2′-binaphthalen-6-yl)-1H-benzimidazol-2-yl)-2-azabicyclo[3.1.0]hex-2-yl)carbonyl)-2-methylpropyl)carbamate]	170

Same assay, conditions: Hepatitis C virus; HCV 1b genotype replicon; read-out: Range (EC50 values against HCV 1b)

SMILES	EC50 [nM]
COC(=O)N[C@H](C(=O)N1CCC[C@H]1c1nc2nc(-c3ccc4cc(-c5cnc6[nH]c([C@@H]7CCCN7C(=O)[C@@H](NC(=O)OC)C(C)C)nc6n5)ccc4c3)cnc2[nH]1)C(C)C [Example 24, Methyl((1S)-1-(((2S)-2-(5-(6-(2-((2S)-1-((2S)-2-((methoxycarbonyl)amino)-3-methylbutanoyl)-2-pyrrolidinyl)-1H-imidazo[4,5-b]pyrazin-5-yl)-2-naphthyl)-1H-imidazo[4,5-b]pyrazin-2-yl)-1-pyrrolidinyl)carbonyl)-2-methylpropyl)carbamate]	0.0101 to 1
COC(=O)N[C@H](C(=O)N1CCC[C@@H]1c1nc2nc(-c3ccc4cc(-c5cnc6[nH]c([C@@H]7CCCN7C(=O)[C@@H](NC(=O)OC)C(C)C)nc6n5)ccc4c3)cnc2[nH]1)C(C)C [Example 25A, Methyl((1S)-1-(((2S)-2-(5-(6-(2-((2R)-1-((2S)-2-((methoxycarbonyl)amino)-3-methylbutanoyl)-2-pyrrolidinyl)-1H-imidazo[4,5-b]pyrazin-5-yl)-2-naphthyl)-1H-imidazo[4,5-b]pyrazin-2-yl)-1-pyrrolidinyl)carbonyl)-2-methylpropyl)carbamate]	1.01 to 1000
COC(=O)N[C@H](C(=O)N1CCC[C@@H]1c1nc2nc(-c3ccc4cc(-c5cnc6[nH]c([C@H]7CCCN7C(=O)[C@@H](NC(=O)OC)C(C)C)nc6n5)ccc4c3)cnc2[nH]1)C(C)C [Example 25B, Methyl((1S)-1-(((2R)-2-(5-(6-(2-((2R)-1-((2S)-2-((methoxycarbonyl)amino)-3-methylbutanoyl)-2-pyrrolidinyl)-1H-imidazo[4,5-b]pyrazin-5-yl)-2-naphthyl)-1H-imidazo[4,5-b]pyrazin-2-yl)-1-pyrrolidinyl)carbonyl)-2-methylpropyl)carbamate]	1.01 to 1000
COC(=O)N[C@H](C(=O)N1CCC[C@H]1c1nc2ccc(-c3ccc4cc(-c5ccc6nc([C@@H]7CCCN7C(=O)[C@@H](NC(=O)OC)C7CCOCC7)[nH]c6c5)ccc4c3)cc2[nH]1)C1CCOCC1 [Example 26, Dimethyl(2,6-naphthalenediylbis(1H-benzimidazole-5,2-diyl(2S)-2,1-pyrrolidinediyl((1S)-2-oxo-1-(tetrahydro-2H-pyran-4-yl)-2,1-ethanediyl)))biscarbamate]	0.0101 to 1
COC(=O)N[C@H](C(=O)N1CCC[C@H]1c1ncc(-c2ccc3cc(-c4ccc5nc([C@@H]6CCCN6C(=O)[C@@H](NC(=O)OC)C6CCOCC6)[nH]c5c4)ccc3c2)[nH]1)C1CCOCC1 [Example 28, Methyl((1S)-2-((2S)-2-(4-(6-(2-((2S)-1-((2S)-2-((methoxycarbonyl)amino)-2-(tetrahydro-2H-pyran-4-yl)acetyl)-2-pyrrolidinyl)-1H-benzimidazol-5-yl)-2-naphthyl)-1H-imidazol-2-yl)-1-pyrrolidinyl)-2-oxo-1-(tetrahydro-2H-pyran-4-yl)ethyl)carbamate]	0.0101 to 1
COC(=O)N[C@H](C(=O)N1CCC[C@H]1c1ncc(C#Cc2ccc3cc(C#Cc4cnc([C@@H]5CCCN5C(=O)[C@@H](NC(=O)OC)C(C)C)[nH]4)ccc3c2)[nH]1)C(C)C [Example 31, Methyl((1S)-1-(((2S)-2-(4-((6-((2-((2S)-1-((2S)-2-((methoxycarbonyl)amino)-3-methylbutanoyl)-2-pyrrolidinyl)-1H-imidazol-4-yl)ethynyl)-2-naphthyl)ethynyl)-1H-imidazol-2-yl)-1-pyrrolidinyl)carbonyl)-2-methylpropyl)carbamate]	0.0101 to 1
COC(=O)N[C@H](C(=O)N1CCC[C@H]1c1ncc(-c2ccc3cc(-c4cnc([C@@H]5CCCN5C(=O)[C@@H](NC(=O)OC)C(C)C)[nH]4)ccc3c2)[nH]1)C(C)C [Example 32]	0.0101 to 1
COC(=O)N[C@H](C(=O)N1[C@@H]2C[C@@H]2C[C@H]1c1nc2ccc(-c3ccc4nc(-c5ccc6nc([C@@H]7C[C@H]8C[C@H]8N7C(=O)[C@@H](NC(=O)OC)C7CCOCC7)[nH]c6c5)cnc4c3)cc2[nH]1)C1CCOCC1 [Example 38, Dimethyl(2,6-quinoxalinediylbis(1H-benzimidazole-5,2-diyl(1R,3S,5R)-2-azabicyclo[3.1.0]hexane-3,2-diyl((1S)-2-oxo-1-(tetrahydro-2H-pyran-4-yl)-2,1-ethanediyl)))biscarbamate]	0.0101 to 1
COC(=O)N[C@H](C(=O)N1[C@@H]2C[C@@H]2C[C@H]1c1nc2ccc(-c3ccc4nc(-c5ccc6nc([C@@H]7C[C@H]8C[C@H]8N7C(=O)[C@@H](NC(=O)OC)C7CCOCC7)[nH]c6c5)ccc4c3)cc2[nH]1)C1CCOCC1 [Example 39, Dimethyl(2,6-quinolinediylbis(1H-benzimidazole-5,2-diyl(1R,3S,5R)-2-azabicyclo[3.1.0]hexane-3,2-diyl((1S)-2-oxo-1-(tetrahydro-2H-pyran-4-yl)-2,1-ethanediyl)))biscarbamate]	0.0101 to 1
COC(=O)N[C@H](C(=O)N1CCC[C@H]1c1ncc(-c2ccc3cc(-c4ccc5c(ccc6nc([C@@H]7CCCN7C(=O)[C@@H](NC(=O)OC)C7CCOCC7)[nH]c65)c4)ccc3c2)[nH]1)C1CCOCC1 [Example 42]	0.0101 to 1
COC(=O)N[C@H](C(=O)N1[C@@H]2C[C@@H]2C[C@H]1c1ncc(-c2ccc3cc(-c4ccc5nc([C@@H]6C[C@H]7C[C@H]7N6C(=O)[C@@H](NC(=O)OC)C6CCOCC6)[nH]c5c4)ccc3c2)[nH]1)C1CCOCC1 [Example 45, Methyl((1S)-2-((1R,3S,5R)-3-(4-(6-(2-((1R,3S,5R)-2-((2S)-2-((methoxycarbonyl)amino)-2-(tetrahydro-2H-pyran-4-yl)acetyl)-2-azabicyclo[3.1.0]hex-3-yl)-1H-benzimidazol-5-yl)-2-naphthyl)-1H-imidazol-2-yl)-2-azabicyclo[3.1.0]hex-2-yl)-2-oxo-1-(tetrahydro-2H-pyran-4-yl)ethyl)carbamate]	0.0101 to 1
COC(=O)N[C@H](C(=O)N1[C@@H]2C[C@@H]2C[C@H]1c1nc2ccc(-c3ccc4cc(-c5ccc6cc(-c7ccc8nc([C@@H]9C[C@H]%10C[C@H]%10N9C(=O)[C@@H](NC(=O)OC)C(C)C)[nH]c8c7)ccc6c5)ccc4c3)cc2[nH]1)C(C)C [Example 46, Methyl((1S)-1-(((1R,3S,5R)-3-(5-(6′-(2-((1R,3S,5R)-2-((2S)-2-((methoxycarbonyl)amino)-3-methylbutanoyl)-2-azabicyclo[3.1.0]hex-3-yl)-1H-benzimidazol-5-yl)-2,2′-binaphthalen-6-yl)-1H-benzimidazol-2-yl)-2-azabicyclo[3.1.0]hex-2-yl)carbonyl)-2-methylpropyl)carbamate]	1.01 to 1000

Reference: patent US9006455B2 (Bristol-Myers Squibb Company, priority 2009, dated 2015)
